Laboratory results as given in patent publication US9359330B2, “Substituted piperidines as sodium channel blockers” (Purdue Pharma L.P., priority 2013, dated 2016).

molecular target: human Nav1.7 (Homo sapiens (Human), UniProt Q15858); assay: FLIPR sodium dye assay with KCl and test article pre-incubation, recombinant Nav1.7/HEK293 cells; format: cell-based; conditions: Nav1.7, FLIPR assay
Sequence (Q15858 other isoform, or with tags, fused parts or gaps): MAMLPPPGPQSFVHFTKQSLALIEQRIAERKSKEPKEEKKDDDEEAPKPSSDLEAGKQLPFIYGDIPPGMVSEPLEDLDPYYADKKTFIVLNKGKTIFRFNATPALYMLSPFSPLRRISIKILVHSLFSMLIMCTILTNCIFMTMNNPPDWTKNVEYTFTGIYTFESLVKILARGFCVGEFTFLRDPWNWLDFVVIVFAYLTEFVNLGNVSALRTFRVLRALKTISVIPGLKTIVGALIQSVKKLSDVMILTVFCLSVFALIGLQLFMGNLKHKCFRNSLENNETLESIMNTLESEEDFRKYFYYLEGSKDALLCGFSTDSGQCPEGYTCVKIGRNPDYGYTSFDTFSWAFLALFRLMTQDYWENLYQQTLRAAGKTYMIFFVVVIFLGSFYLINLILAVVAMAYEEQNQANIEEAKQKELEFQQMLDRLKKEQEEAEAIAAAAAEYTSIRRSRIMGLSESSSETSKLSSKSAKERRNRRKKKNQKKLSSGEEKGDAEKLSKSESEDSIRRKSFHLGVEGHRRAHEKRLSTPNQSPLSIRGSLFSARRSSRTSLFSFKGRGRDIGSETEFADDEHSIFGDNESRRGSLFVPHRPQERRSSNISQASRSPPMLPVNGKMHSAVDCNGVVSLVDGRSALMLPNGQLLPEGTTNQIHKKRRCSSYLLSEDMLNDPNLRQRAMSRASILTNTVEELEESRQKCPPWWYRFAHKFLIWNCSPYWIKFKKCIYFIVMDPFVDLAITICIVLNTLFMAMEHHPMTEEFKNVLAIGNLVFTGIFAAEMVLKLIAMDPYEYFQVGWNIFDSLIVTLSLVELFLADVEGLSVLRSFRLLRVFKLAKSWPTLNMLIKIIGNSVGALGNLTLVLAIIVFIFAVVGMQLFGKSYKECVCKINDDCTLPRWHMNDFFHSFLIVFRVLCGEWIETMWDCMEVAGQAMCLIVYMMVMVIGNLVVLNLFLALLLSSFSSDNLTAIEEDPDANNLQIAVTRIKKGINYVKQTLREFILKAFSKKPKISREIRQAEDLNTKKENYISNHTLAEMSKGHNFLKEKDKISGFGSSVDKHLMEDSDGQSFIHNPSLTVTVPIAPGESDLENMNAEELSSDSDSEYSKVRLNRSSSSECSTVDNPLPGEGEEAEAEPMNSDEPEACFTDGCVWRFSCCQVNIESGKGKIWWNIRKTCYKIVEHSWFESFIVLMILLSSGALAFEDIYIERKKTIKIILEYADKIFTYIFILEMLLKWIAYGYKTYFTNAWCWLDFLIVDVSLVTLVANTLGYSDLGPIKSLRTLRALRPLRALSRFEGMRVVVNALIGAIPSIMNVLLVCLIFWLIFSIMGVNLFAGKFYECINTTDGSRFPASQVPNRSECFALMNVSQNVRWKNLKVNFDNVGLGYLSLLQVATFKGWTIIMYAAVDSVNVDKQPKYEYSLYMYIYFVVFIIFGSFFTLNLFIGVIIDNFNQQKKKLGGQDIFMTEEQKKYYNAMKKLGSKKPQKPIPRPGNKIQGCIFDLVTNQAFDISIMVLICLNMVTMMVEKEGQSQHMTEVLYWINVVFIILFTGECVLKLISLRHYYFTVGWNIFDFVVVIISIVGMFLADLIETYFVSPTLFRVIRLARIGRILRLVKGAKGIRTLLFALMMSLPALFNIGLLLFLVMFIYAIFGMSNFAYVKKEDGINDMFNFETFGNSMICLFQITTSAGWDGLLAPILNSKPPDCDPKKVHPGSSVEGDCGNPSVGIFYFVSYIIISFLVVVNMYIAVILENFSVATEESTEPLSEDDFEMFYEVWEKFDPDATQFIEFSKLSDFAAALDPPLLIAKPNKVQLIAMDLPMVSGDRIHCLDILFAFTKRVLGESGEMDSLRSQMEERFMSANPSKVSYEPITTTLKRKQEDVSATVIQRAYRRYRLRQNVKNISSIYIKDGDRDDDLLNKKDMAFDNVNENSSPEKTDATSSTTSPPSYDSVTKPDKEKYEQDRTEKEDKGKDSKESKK

SMILES | IC50 [nM]
CN(C)c1ncc(-c2ccccc2C2CCCN(S(=O)(=O)Nc3ncns3)C2)cn1 (stereo not drawn) [Compound 43, 3-(2-(2-(dimethylamino)pyrimidin-5-yl)phenyl)-N-(1,2,4-thiadiazol-5-yl)piperidine-1-sulfonamide] | > 20000
COc1ccc(C(=O)N2CCCC(c3ccccc3-c3cnc(N(C)C)nc3)C2)cc1[C@H](O)CO (stereo partly drawn) [Compound 35, (3-((S)-1,2-dihydroxyethyl)-4-methoxyphenyl)(3-(2-(2-(dimethylamino)pyrimidin-5-yl)phenyl)piperidin-1-yl)methanone] | 10000 to 20000
CN(C)c1ncc(-c2ccccc2C2CCCN(C(=S)Nc3ccc(C(F)(F)F)cc3)C2)cn1 (stereo not drawn) [Compound 29, 3-(2-(2-(dimethylamino)pyrimidin-5-yl)phenyl)-N-(4-(trifluoromethyl)phenyl)piperidine-1-carbothioamide] | > 20000
COc1ccc(C(=O)N2CCCC(c3ccccc3-c3cnc(N(C)C)nc3)C2)cc1[C@@H](O)CO (stereo partly drawn) [Compound 34, (3-((R)-1,2-dihydroxyethyl)-4-methoxyphenyl)(3-(2-(2-(dimethylamino)pyrimidin-5-yl)phenyl)piperidin-1-yl)methanone] | > 20000
CN(C)c1ncc(-c2ccccc2C2CCCN(C(=O)c3cccc(C(N)=O)c3)C2)cn1 (stereo not drawn) [Compound 37, 3-(3-(2-(2-(dimethylamino)-pyrimidin-5-yl)phenyl)piperidine-1-carbonyl) benzamide] | > 20000
O=C(c1ccc(OCC(F)(F)F)nc1)N1CCCC(c2ccccc2O)C1 (stereo not drawn) [Compound 7, (3-(2-hydroxyphenyl)piperidin-1-yl)(6-(2,2,2-trifluoroethoxy)pyridin-3-yl)methanone] | 2570 ± 62
COc1ncc(-c2ccccc2C2CCCN(C(=O)c3cccnc3N)C2)cn1 (stereo not drawn) [Compound 28, (2-aminopyridin-3-yl)(3-(2-(2-methoxypyrimidin-5-yl)phenyl)piperidin-1-yl)methanone] | 2570 ± 574
COc1ccc(NC(=S)N2CCCC(c3ccccc3-c3cnc(N(C)C)nc3)C2)cc1 (stereo not drawn) [Compound 30, 3-(2-(2-(dimethylamino)pyrimidin-5-yl)phenyl)-N-(4-methoxyphenyl)piperidine-1-carbothioamide] | 2520 ± 753
O=C(c1ccc(OCC(F)(F)F)nc1)N1CCCC(c2ccccc2)C1 (stereo not drawn) [Compound 10, (3-phenylpiperidin-1-yl)(6-(2,2,2-trifluoroethoxy)pyridin-3-yl)methanone] | 1600 ± 105
O=C(c1ccc(OCC(F)(F)F)nc1)N1CCCC(c2ccccc2-c2ccc(O)nc2)C1 (stereo not drawn) [Compound 19, (3-(2-(6-hydroxypyridin-3-yl)phenyl)piperidin-1-yl)(6-(2,2,2-trifluoroethoxy)pyridin-3-yl)methanone] | 5470 ± 220
CN(C)c1ncc(-c2ccccc2C2CCCN(C(=O)c3ccc(C(N)=O)cc3)C2)cn1 (stereo not drawn) [Compound 38, 4-(3-(2-(2-(dimethylamino)-pyrimidin-5-yl)phenyl)piperidine-1-carbonyl) benzamide] | > 20000

Now those with a lower IC50, led by results:

IC50 [nM] | SMILES
689 ± 35 | CN(C)c1ncc(-c2ccccc2C2CCCN(C(=O)c3ccc(OC(F)(F)F)cc3)C2)cn1 (stereo not drawn) [Compound 39, (3-(2-(2-(dimethylamino)pyrimidin-5-yl)phenyl)piperidin-1-yl)(4-(tri-fluoromethoxy)phenyl)methanone]
691 ± 60 | COc1ncccc1-c1ccccc1C1CCCN(C(=O)c2ccc(OCC(F)(F)F)nc2)C1 (stereo not drawn) [Compound 17, (3-(2-(2-methoxypyridin-3-yl)phenyl)piperidin-1-yl)(6-(2,2,2-trifluoroethoxy)pyridin-3-yl)methanone]
209 ± 16 | COc1ncc(-c2ccccc2C2CCCN(C(=O)c3ccc(OCC(F)(F)F)cc3)C2)cn1 (stereo not drawn) [Compound 6, (3-(2-(2-methoxypyrimidin-5-yl)phenyl)piperidin-1-yl)(4-(2,2,2-trifluoroethoxy)phenyl) methanone]
941 ± 132 | CN(C)c1ncc(-c2ccccc2C2CCCN(C(=O)Nc3ccc(OC(F)(F)F)cc3)C2)cn1 (stereo not drawn) [Compound 31, 3-(2-(2-(dimethylamino)pyrimidin-5-yl)phenyl)-N-(4-(trifluoromethoxy)phenyl)piperidine-1-carboxamide]
96 ± 6 | CN(C)c1ncc(-c2ccccc2C2CCCN(C(=O)c3ccc(OCC(F)(F)F)cc3)C2)cn1 (stereo not drawn) [Compound 40, (3-(2-(2-(dimethylamino)pyrimidin-5-yl)phenyl)piperidin-1-yl)(4-(2,2,2-trifluoroethoxy)phenyl)methanone]
873 ± 27 | COc1ncc(-c2ccccc2C2CCCN(C(=O)c3ccc(OCC(F)(F)F)nc3)C2)cn1 (stereo not drawn) [Compound 13, (3-(2-(2-methoxypyrimidin-5-yl)phenyl)piperidin-1-yl)(6-(2,2,2-trifluoroethoxy)pyridin-3-yl)methanone]
558 ± 31 | CN(C)c1ncc(-c2ccccc2C2CCCN(C(=O)c3ccc(OCC(F)(F)F)nc3)C2)cn1 (stereo not drawn) [Compound 18, (3-(2-(2-(dimethylamino)pyrimidin-5-yl)phenyl)piperidin-1-yl)(6-(2,2,2-trifluoroethoxy)pyridin-3-yl)methanone]
954 ± 153 | O=C(c1ccc(OCC(F)(F)F)nc1)N1CCCC(c2ccccc2-c2ccc(F)nc2)C1 (stereo not drawn) [Compound 15, (3-(2-(6-fluoropyridin-3-yl)phenyl)piperidin-1-yl)(6-(2,2,2-trifluoroethoxy)pyridin-3-yl)methanone]
676 ± 39 | CSc1ncc(-c2ccccc2C2CCCN(C(=O)c3ccc(OCC(F)(F)F)nc3)C2)cn1 (stereo not drawn) [Compound 16, (3-(2-(2-(methylthio)pyrimidin-5-yl)phenyl)piperidin-1-yl)(6-(2,2,2-trifluoroethoxy)pyridin-3-yl)methanone]
376 ± 29 | CN(C)c1ncc(-c2ccccc2C2CCCN(S(=O)(=O)c3ccc(OC(F)(F)F)cc3)C2)cn1 (stereo not drawn) [Compound 33, N,N-dimethyl-5-(2-(1-((4-(trifluoromethoxy)phenyl)sulfonyl)piperidin-3-yl)phenyl)pyrimidin-2-amine]
672 ± 118 | COc1ccc(S(=O)(=O)N2CCCC(c3ccccc3-c3cnc(N(C)C)nc3)C2)cc1 (stereo not drawn) [Compound 32, 5-(2-(1-((4-methoxyphenyl)sulfonyl)piperidin-3-yl)phenyl)-N,N-dimethylpyrimidin-2-amine]
384 ± 80 | COc1ccc(C(=O)N2CCCC(c3ccccc3-c3cnc(N(C)C)nc3)C2)cc1 (stereo not drawn) [Compound 36, (3-(2-(2-(dimethylamino)pyrimidin-5-yl)phenyl)piperidin-1-yl)(4-methoxyphenyl)methanone]

molecular target: hNav1.7 (Homo sapiens (Human), UniProt Q15858); assay: Electrophysiology (EP) whole-cell patch clamp assay, hNav1.7 expressing HEK-293 cells; format: cell-based; conditions: affinity for inactivated channels; read-out: Nav1.7 Activity EP assay Ki
Sequence (Q15858 other isoform, or with tags, fused parts or gaps): as above

Ki [nM] | SMILES
511 ± 100 | COc1ncc(-c2ccccc2C2CCCN(C(=O)c3ccc(OCC(F)(F)F)cc3)C2)cn1 (stereo not drawn) [Compound 6, (3-(2-(2-methoxypyrimidin-5-yl)phenyl)piperidin-1-yl)(4-(2,2,2-trifluoroethoxy)phenyl) methanone]
2100 ± 384 | COc1ncc(-c2ccccc2C2CCCN(C(=O)c3ccc(OCC(F)(F)F)nc3)C2)cn1 (stereo not drawn) [Compound 13, (3-(2-(2-methoxypyrimidin-5-yl)phenyl)piperidin-1-yl)(6-(2,2,2-trifluoroethoxy)pyridin-3-yl)methanone]

same assay, conditions: resting block dissociation constant; read-out: Nav1.7 Activity EP assay Kr

Kd [nM] | SMILES
97900 ± 9300 | COc1ncc(-c2ccccc2C2CCCN(C(=O)c3ccc(OCC(F)(F)F)cc3)C2)cn1 (stereo not drawn) [Compound 6, (3-(2-(2-methoxypyrimidin-5-yl)phenyl)piperidin-1-yl)(4-(2,2,2-trifluoroethoxy)phenyl) methanone]
115000 ± 22300 | COc1ncc(-c2ccccc2C2CCCN(C(=O)c3ccc(OCC(F)(F)F)nc3)C2)cn1 (stereo not drawn) [Compound 13, (3-(2-(2-methoxypyrimidin-5-yl)phenyl)piperidin-1-yl)(6-(2,2,2-trifluoroethoxy)pyridin-3-yl)methanone]
